US6376518B1, “Acyl derivatives of 4-demethylpenclomedine, use thereof and preparation thereof” (Southern Research Institute, priority 1999, dated 2002)
Like-named read-outs stand apart in the source and are kept apart here.

Key:
human MX-1 mammary tumor [1] = test: In vivo antitumor activity vs s.c.-implanted human MX-1 mammary tumor xenograft in athymic mice; settings: sc MX-1, Days 12-16
human MX-1 mammary tumor [2] = test: In vivo antitumor activity vs i.c.-implanted human MX-1 mammary tumor xenograft in athymic mice; settings: ic MX-1; for Tumor-Free-Surv/Total / Median % ILS (dying mice only): Days 1-5
P388/CPA leukemia = test: Antitumor activity against IP-implanted P388/CPA leukemia in mice; assay type: in vivo, murine; settings: P388/CPA, Q1D × 5 (1)
P388/L-PAM leukemia = settings: for MEDIAN DAY OF DEATH: dying mice only
P388/0 leukemia = settings: P388/0; for MEDIAN DAY OF DEATH: dying mice only
P388/BCNU leukemia = test: Antitumor activity against IP-implanted P388/BCNU leukemia in mice; settings: P388/BCNU, Q1D × 5 (1); for MEDIAN DAY OF DEATH: dying mice only
[3] = optimal doses (LD10 or less), schedule QD1-5, administered LP.
[4] = P388/L-PAM, IP 60.0 mg/kg/dose, Q1D × 5 (1)
[5] = P388/L-PAM, IP 90.0 mg/kg/dose, Q1D × 5 (1)
[6] = P388/L-PAM, IP 135.0 mg/kg/dose, Q1D × 5 (1)
[7] = IP 60.0 mg/kg/dose, Q1D × 5 (1)
[8] = IP 90.0 mg/kg/dose, Q1D × 5 (1)
[9] = IP 135.0 mg/kg/dose, Q1D × 5 (1)
[10] = P388/L-PAM, IP 15.0 mg/kg/dose, Q1D × 1 (1)
[11] = P388/L-PAM, IP 20.0 mg/kg/dose, Q1D × 1 (1)
[12] = IP 20.0 mg/kg/dose, Q1D × 1 (1)

## COc1nc(C(Cl)(Cl)Cl)c(Cl)c(OC(=O)c2ccco2)c1Cl [DM-F-PEN]
Human MX-1 mammary tumor [1]; IP 90 mg/kg/dose
  Tumor-Free-Surv/Total: 5/5
Human MX-1 mammary tumor [2]
  activity against i.c.-implanted tumor in comparison to PEN and DM-PEN (in words): significant activity
Human MX-1 mammary tumor [2]; IP 135 mg/kg/dose
  Tumor-Free-Surv/Total: 2/5
Human MX-1 mammary tumor [2]; [3]
  Survivors: 2/5

## COc1nc(C(Cl)(Cl)Cl)c(Cl)c(OC(=O)CI)c1Cl [DM-IA-PEN]
Human MX-1 mammary tumor [1]; IP 60 mg/kg/dose
  Dose (mg/kg) with observed lethality level: 60 (LD40)
  Tumor-Free-Surv/Total: 1/5

## COc1nc(C(Cl)(Cl)Cl)c(Cl)c(OC(=O)c2ccncc2)c1Cl [DM-IN-PEN]
Human MX-1 mammary tumor [1]; IP 90 mg/kg/dose
  Dose (mg/kg) with observed lethality level: 90 (LD20)
  Tumor-Free-Surv/Total: 3/5

## COCC(=O)Oc1c(Cl)c(OC)nc(C(Cl)(Cl)Cl)c1Cl [DM-MA-PEN]
Human MX-1 mammary tumor [1]; oral (gavage) 135 mg/kg/dose
  T-C: >41.0 days
  Tumor-Free-Surv/Total: 5/5
Human MX-1 mammary tumor [2]
  activity against i.c.-implanted tumor in comparison to PEN and DM-PEN (in words): significant activity
Human MX-1 mammary tumor [2]; IP 90 mg/kg/dose
  Tumor-Free-Surv/Total: 1/5
Human MX-1 mammary tumor [2]; [3]
  Survivors: 1/5
Human MX-1 mammary tumor [2]; oral (gavage) 90 mg/kg/dose
  Median % ILS (dying mice only): +110%
  Tumor-Free-Surv/Total: 1/5

## COc1nc(C(Cl)(Cl)Cl)c(Cl)c(OC(=O)c2ccc([N+](=O)[O-])cc2)c1Cl [DM-NB-PEN]
Human MX-1 mammary tumor [1]; IP 135 mg/kg/dose
  Tumor-Free-Surv/Total: 5/5

## COc1nc(C(Cl)(Cl)Cl)c(Cl)c(OC(=O)c2ccc([N+](=O)[O-])o2)c1Cl [DM-NF-PEN]
Human MX-1 mammary tumor [1]; IP 90 mg/kg/dose
  Tumor-Free-Surv/Total: 4/5
Human MX-1 mammary tumor [2]; IP 135 mg/kg/dose
  Median % ILS (dying mice only): +59%

## CCCCCCCC(=O)Oc1c(Cl)c(OC)nc(C(Cl)(Cl)Cl)c1Cl [DM-O-PEN]
Human MX-1 mammary tumor [2]
  activity against i.c.-implanted tumor in comparison to PEN and DM-PEN (in words): significant activity
Human MX-1 mammary tumor [2]; IP 90 mg/kg/dose
  Tumor-Free-Surv/Total: 0/5
Human MX-1 mammary tumor [2]; [3]
  Survivors: 0/5

## COc1nc(C(Cl)(Cl)Cl)c(Cl)c(O)c1Cl [DM-PEN, 3,5-dichloro-2-methoxy-4-hydroxy-6-(trichloromethyl)pyridine]
P388/CPA leukemia; IP 60.0 mg/kg/dose
  50-DAY SURV/TOTAL: 0/6
  % ILS: +22%
  APPROX. NET LOG10 CHANGE IN TUMOR BURDEN AT END OF Rx: +0.9
P388/CPA leukemia; IP 90.0 mg/kg/dose
  50-DAY SURV/TOTAL: 0/6
  % ILS: +54%
  APPROX. NET LOG10 CHANGE IN TUMOR BURDEN AT END OF Rx: −1.1
P388/CPA leukemia; IP 90.0 mg/kg/dose, dying mice only
  MEDIAN DAY OF DEATH: 17.0
P388/CPA leukemia; IP 135.0 mg/kg/dose
  50-DAY SURV/TOTAL: 0/6
  % ILS: +31%
  APPROX. NET LOG10 CHANGE IN TUMOR BURDEN AT END OF Rx: +0.3
P388/L-PAM leukemia; [4]
  50-DAY SURV/TOTAL: 0/6
  % ILS: −4%
  APPROX. NET LOG10 CHANGE IN TUMOR BURDEN AT END OF Rx: +1.6
P388/L-PAM leukemia; [5]
  50-DAY SURV/TOTAL: 0/6
  % ILS: −8%
  APPROX. NET LOG10 CHANGE IN TUMOR BURDEN AT END OF Rx: +1.6
  MEDIAN DAY OF DEATH: 13.0
P388/L-PAM leukemia; [6]
  50-DAY SURV/TOTAL: 0/6
  % ILS: −4%
  APPROX. NET LOG10 CHANGE IN TUMOR BURDEN AT END OF Rx: +1.6
  Toxicity / lethality level at the dosage (LD): LD33
P388/L-PAM leukemia; mouse, in vivo
  activity in the P388/L-PAM tumor model (in words): none of the three showed significant activity
Human MX-1 mammary tumor [2]; [3]
  Median % ILS (based on dying mice only): 60%
  Survivors: 0/5
P388/0 leukemia; [7]
  50-DAY SURV/TOTAL: 0/6
  % ILS: +45%
  APPROX. NET LOG10 CHANGE IN TUMOR BURDEN AT END OF Rx: −0.8
  MEDIAN DAY OF DEATH: 16.0
P388/0 leukemia; [8]
  50-DAY SURV/TOTAL: 0/6
  % ILS: +72%
  APPROX. NET LOG10 CHANGE IN TUMOR BURDEN AT END OF Rx: −3.1
  MEDIAN DAY OF DEATH: 19.0
P388/0 leukemia; [9]
  50-DAY SURV/TOTAL: 0/6
  % ILS: −23%
  Toxicity / lethality level at the dosage (LD): TOXIC
  MEDIAN DAY OF DEATH: 8.5
P388/BCNU leukemia; IP 60.0 mg/kg/dose
  50-DAY SURV/TOTAL: 0/6
  % ILS: +33%
  APPROX. NET LOG10 CHANGE IN TUMOR BURDEN AT END OF Rx: +0.8
  MEDIAN DAY OF DEATH: 12.0
P388/BCNU leukemia; IP 90.0 mg/kg/dose
  50-DAY SURV/TOTAL: 0/6
  % ILS: +55%
  APPROX. NET LOG10 CHANGE IN TUMOR BURDEN AT END OF Rx: −0.8
  MEDIAN DAY OF DEATH: 14.0
P388/BCNU leukemia; IP 135.0 mg/kg/dose
  50-DAY SURV/TOTAL: 0/6
  % ILS: +88%
  APPROX. NET LOG10 CHANGE IN TUMOR BURDEN AT END OF Rx: −3.1
  Toxicity / lethality level at the dosage (LD): LD17
  MEDIAN DAY OF DEATH: 17.0

## COc1nc(C(Cl)(Cl)Cl)c(Cl)c(OC(=O)c2c(Cl)cc(Cl)cc2Cl)c1Cl [DM-TCB-PEN]
Human MX-1 mammary tumor [2]; IP 135 mg/kg/dose
  Median % ILS (dying mice only): +92%
  Tumor-Free-Surv/Total: 1/5

## N[C@@H](Cc1ccc(N(CCCl)CCCl)cc1)C(=O)O [L-PAM (melphalan), melphalan]
P388/L-PAM leukemia; [10]
  50-DAY SURV/TOTAL: 0/6
  % ILS: +14%
  APPROX. NET LOG10 CHANGE IN TUMOR BURDEN AT END OF Rx: −1.8
  MEDIAN DAY OF DEATH: 18.0
P388/L-PAM leukemia; [11]
  50-DAY SURV/TOTAL: 0/6
  % ILS: +14%
  APPROX. NET LOG10 CHANGE IN TUMOR BURDEN AT END OF Rx: −1.8
  MEDIAN DAY OF DEATH: 18.0
P388/0 leukemia; IP 15.0 mg/kg/dose, Q1D × 1 (1)
  50-DAY SURV/TOTAL: 6/6
P388/0 leukemia; [12]
  50-DAY SURV/TOTAL: 6/6
  % ILS: +209%
  APPROX. NET LOG10 CHANGE IN TUMOR BURDEN AT END OF Rx: ca −8.8
  MEDIAN DAY OF DEATH: 34.0
